Measurements published in patent publication US20260355318A1, “MOLECULAR MACHINES FOR TREATMENT OF CANCER, FUNGAL INFECTIONS, OR BACTERIAL INFECTIONS” (priority 2022, published 2026).

Key:
[1] = system: persister cells of A. baumannii; experiment: Persister eradication, A. baumannii; assay type: cell-based, Acinetobacter baumannii; details: 1×MIC, 405 nm
[2] = system: persister cells of P. aeruginosa; experiment: Persister eradication, P. aeruginosa; assay type: cell-based, Pseudomonas aeruginosa; details: 1×MIC, 405 nm
E. coli = experiment: Antibacterial activity of pre-irradiated MM 1; assay type: cell-based, Escherichia coli; details: pre-irradiation 25 min
Procedure: Influence of MM pre-irradiation on the inactivation of E. coli. Top: (1) To test the influence of pre-irradiating MMs on their antibacterial effects, MM 1 was added to a Petri dish containing PBS (final concentration of 8 μM) and irradiated for 25 min at 146 mW cm^−2 with 405 nm light. Cells were then added to an OD of ≈0.02, incubated in the dark for 30 min and then irradiated for up to 10 min at 146 mW cm^−2 with 405 nm light; (2) Independently, MM 1 was added to a Petri dish containing PBS (final concentration of […]), cells were then added to an OD600 of ≈0.02, incubated in the dark for 30 min and then irradiated for up to 10 min at 146 mW cm^−2 with 405 nm light. Bottom: Time-dependent reduction in colony-forming units (expressed as the logarithm of the ratio between the cell number at every time point and the cell number at time zero) of cells treated with pre-irradiated MM 1 or non-irradiated MM 1.

Structure (SMILES): C[C@@H]1Cc2ccc3ccccc3c2/C1=C1\c2ccccc2Sc2cc(NCCN(C)C)ccc21 [MM 1, N^1N^1-dimethyl-N^2-(9-(2-methyl-2,3-dihydro-1H-cyclopenta[a]naphthalen-1-ylidene)-9H-thioxanthen-3-yl) ethane-1,2-diamine]
- time to reduce persister cells to limit of detection [1]: 3 min
- time to reduce persister cells to limit of detection [2]: 2 min
- antibacterial activity after pre-irradiation (E. coli): does not lead to loss of MM antibacterial activity
